Laboratory results taken from PubChem BioAssay AID2060497 (Molecular Pharmacology Branch, DTP, NCI, 2025).

Tested on: 317291-083-R-J1-PDC complex spheroids, viability
Assay: Anticancer human tumor 317291-083-R-J1-PDC patient-derived soft tissue sarcoma cell line growth inhibition [GQUAD]
Conditions: for IC50: curve of first compound; for viability, T/C: stronger effect = lower value
How it was run: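 Multi-cell-type spheroids of tumor cells with HUVEC and mesenchymal stem cells, treated with drug combinations. Concentrations descend in half-log steps from near clinical Cmax, or from 10 microM where Cmax is unknown; viability read-out.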

[1] = second compound 0.0316 µM, first compound 0.0316 µM
[2] = second compound 0.0316 µM, first compound 0.1 µM
[3] = second compound 0.0316 µM, first compound 0.316 µM
[4] = second compound 0.0316 µM, first compound 1 µM
[5] = second compound 0.0316 µM, first compound 3.16 µM
[6] = second compound 0.0316 µM, first compound 10 µM
[7] = second compound 0.1 µM, first compound 0.0316 µM
[8] = second compound 0.1 µM, first compound 0.1 µM
[9] = second compound 0.1 µM, first compound 0.316 µM
[10] = second compound 0.1 µM, first compound 1 µM
[11] = second compound 0.1 µM, first compound 3.16 µM
[12] = second compound 0.1 µM, first compound 10 µM
[13] = second compound 0.316 µM, first compound 0.0316 µM
[14] = second compound 0.316 µM, first compound 0.1 µM
[15] = second compound 0.316 µM, first compound 0.316 µM
[16] = second compound 0.316 µM, first compound 1 µM
[17] = second compound 0.316 µM, first compound 3.16 µM
[18] = second compound 0.316 µM, first compound 10 µM
[19] = second compound 1 µM, first compound 0.0316 µM
[20] = second compound 1 µM, first compound 0.1 µM
[21] = second compound 1 µM, first compound 0.316 µM
[22] = second compound 1 µM, first compound 1 µM
[23] = second compound 1 µM, first compound 3.16 µM
[24] = second compound 1 µM, first compound 10 µM
[25] = second compound 3.16 µM, first compound 0.0316 µM
[26] = second compound 3.16 µM, first compound 0.1 µM
[27] = second compound 3.16 µM, first compound 0.316 µM
[28] = second compound 3.16 µM, first compound 1 µM
[29] = second compound 3.16 µM, first compound 3.16 µM
[30] = second compound 3.16 µM, first compound 10 µM
[31] = second compound 10 µM, first compound 0.0316 µM
[32] = second compound 10 µM, first compound 0.1 µM
[33] = second compound 10 µM, first compound 0.316 µM
[34] = second compound 10 µM, first compound 1 µM
[35] = second compound 10 µM, first compound 3.16 µM
[36] = second compound 10 µM, first compound 10 µM
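Also: spheroids exposed to compounds for one week before readout.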
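For viability, T/C in this document: percent viability relative to DMSO vehicle wells taken as 100%.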

Cc1cccc(N(C)C(=O)C2C(O)CCN2c2nc(C)cc(C(F)(F)F)c2C#N)c1 (stereo unspecified) + Cc1cnc(CNC(=O)c2c(=O)c3ccc(N4CCCN(C)CC4)nc3n3c2sc2ccccc23)cn1
IC50 (second compound 0.0316 µM): > 10000 nM
IC50 (second compound 0.1 µM): > 10000 nM
IC50 (second compound 0.316 µM): 4450 nM
IC50 (second compound 1 µM): < 31.6 nM
IC50 (second compound 3.16 µM): < 31.6 nM
IC50 (second compound 10 µM): < 31.6 nM
viability, T/C [1]: 118%
viability, T/C [2]: 81.9%
viability, T/C [3]: 89.3%
viability, T/C [4]: 84.5%
viability, T/C [5]: 85.2%
viability, T/C [6]: 80.2%
viability, T/C [7]: 78.7%
viability, T/C [8]: 58.7%
viability, T/C [9]: 62.3%
viability, T/C [10]: 74%
viability, T/C [11]: 56%
viability, T/C [12]: 61.2%
viability, T/C [13]: 41.6%
viability, T/C [14]: 83.8%
viability, T/C [15]: 48%
viability, T/C [16]: 43.2%
viability, T/C [17]: 64%
viability, T/C [18]: 35.5%
viability, T/C [19]: 38.2%
viability, T/C [20]: 29.7%
viability, T/C [21]: 37.7%
viability, T/C [22]: 28.5%
viability, T/C [23]: 37.9%
viability, T/C [24]: 30.1%
viability, T/C [25]: 25.4%
viability, T/C [26]: 22.3%
viability, T/C [27]: 16.1%
viability, T/C [28]: 18.2%
viability, T/C [29]: 28.9%
viability, T/C [30]: 33.5%
viability, T/C [31]: 33.2%
viability, T/C [32]: 35.5%
viability, T/C [33]: 24.4%
viability, T/C [34]: 42.2%
viability, T/C [35]: 28.8%
viability, T/C [36]: 52.6%

Cn1ncnc1[C@H]1c2n[nH]c(=O)c3cc(F)cc(c23)N[C@@H]1c1ccc(F)cc1 + Cc1cnc(CNC(=O)c2c(=O)c3ccc(N4CCCN(C)CC4)nc3n3c2sc2ccccc23)cn1
IC50 (second compound 0.0316 µM): 246 nM
IC50 (second compound 0.1 µM): 24.2 nM
IC50 (second compound 0.316 µM): < 0.999 nM
IC50 (second compound 1 µM): < 0.999 nM
IC50 (second compound 3.16 µM): < 0.999 nM
IC50 (second compound 10 µM): < 0.999 nM
viability, T/C (second compound 0.0316 µM, first compound 0.000999 µM): 88.6%
viability, T/C (second compound 0.0316 µM, first compound 0.00316 µM): 106%
viability, T/C (second compound 0.0316 µM, first compound 0.00999 µM): 75.6%
viability, T/C [1]: 74%
viability, T/C (second compound 0.0316 µM, first compound 0.0999 µM): 59.8%
viability, T/C [3]: 46.8%
viability, T/C (second compound 0.1 µM, first compound 0.000999 µM): 73.8%
viability, T/C (second compound 0.1 µM, first compound 0.00316 µM): 74.7%
viability, T/C (second compound 0.1 µM, first compound 0.00999 µM): 49.7%
viability, T/C [7]: 50.4%
viability, T/C (second compound 0.1 µM, first compound 0.0999 µM): 37.9%
viability, T/C [9]: 25.3%
viability, T/C (second compound 0.316 µM, first compound 0.000999 µM): 46.1%
viability, T/C (second compound 0.316 µM, first compound 0.00316 µM): 42.7%
viability, T/C (second compound 0.316 µM, first compound 0.00999 µM): 41.2%
viability, T/C [13]: 25.5%
viability, T/C (second compound 0.316 µM, first compound 0.0999 µM): 36.7%
viability, T/C [15]: 24.2%
viability, T/C (second compound 1 µM, first compound 0.000999 µM): 32.2%
viability, T/C (second compound 1 µM, first compound 0.00316 µM): 35.5%
viability, T/C (second compound 1 µM, first compound 0.00999 µM): 31.4%
viability, T/C [19]: 21.1%
viability, T/C (second compound 1 µM, first compound 0.0999 µM): 24.3%
viability, T/C [21]: 23.9%
viability, T/C (second compound 3.16 µM, first compound 0.000999 µM): 17.3%
viability, T/C (second compound 3.16 µM, first compound 0.00316 µM): 13.4%
viability, T/C (second compound 3.16 µM, first compound 0.00999 µM): 16.9%
viability, T/C [25]: 17.2%
viability, T/C (second compound 3.16 µM, first compound 0.0999 µM): 20.3%
viability, T/C [27]: 12.7%
viability, T/C (second compound 10 µM, first compound 0.000999 µM): 41%
viability, T/C (second compound 10 µM, first compound 0.00316 µM): 35.4%
viability, T/C (second compound 10 µM, first compound 0.00999 µM): 25.4%
viability, T/C [31]: 34.6%
viability, T/C (second compound 10 µM, first compound 0.0999 µM): 29.9%
viability, T/C [33]: 25.4%

O=C(c1cc(Cc2n[nH]c(=O)c3ccccc23)ccc1F)N1CCN(C(=O)C2CC2)CC1 + Cc1cnc(CNC(=O)c2c(=O)c3ccc(N4CCCN(C)CC4)nc3n3c2sc2ccccc23)cn1
IC50 (second compound 0.0316 µM): > 10000 nM
IC50 (second compound 0.1 µM): 2170 nM
IC50 (second compound 0.316 µM): < 31.6 nM
IC50 (second compound 1 µM): < 31.6 nM
IC50 (second compound 3.16 µM): < 31.6 nM
IC50 (second compound 10 µM): < 31.6 nM
viability, T/C [1]: 101%
viability, T/C [2]: 92.4%
viability, T/C [3]: 89.7%
viability, T/C [4]: 77.5%
viability, T/C [5]: 67.7%
viability, T/C [6]: 59.3%
viability, T/C [7]: 88.3%
viability, T/C [8]: 72.7%
viability, T/C [9]: 64.5%
viability, T/C [10]: 57.6%
viability, T/C [11]: 53.3%
viability, T/C [12]: 31.2%
viability, T/C [13]: 44.7%
viability, T/C [14]: 43.4%
viability, T/C [15]: 57.1%
viability, T/C [16]: 33.8%
viability, T/C [17]: 39.2%
viability, T/C [18]: 46%
viability, T/C [19]: 30%
viability, T/C [20]: 38.5%
viability, T/C [21]: 51.5%
viability, T/C [22]: 26.6%
viability, T/C [23]: 24.2%
viability, T/C [24]: 19.6%
viability, T/C [25]: 17.2%
viability, T/C [26]: 14.6%
viability, T/C [27]: 64.8%
viability, T/C [28]: 39.8%
viability, T/C [29]: 32.8%
viability, T/C [30]: 14.8%
viability, T/C [31]: 31.1%
viability, T/C [32]: 16.8%
viability, T/C [33]: 19.1%
viability, T/C [34]: 36.2%
viability, T/C [35]: 20.5%
viability, T/C [36]: 15.2%
